Results on two compounds are retold here after patent US6544166B1, “Treatment of human infertility” (priority 1999, dated 2003).

Each structure is given as a SMILES string. Marks after values point to notes of the source that are not given here.

The test system of test [1] is cumulus enclosed human oocytes. Nature of the test: Maturation of cumulus enclosed human oocytes with FF-MAS. The test is classed as cell-based. The text has this: Although the use of FF-MAS improves the rate of fertility compared to the currently applied methods, it is still desirable to increase this rate even further.
Test [2] deals with mouse oocytes. Nature of the test: In vitro fertilization of mouse oocytes after in vitro maturation with or without Hx arrest and FF-MAS induction (Example 4). It counts as cell-based, mice (C57Bl/6J×DBA/2J F1-hybrids). As for the experimental part: Aim: to optimize the culture conditions for mammalian oocytes by arresting the spontaneous maturation for 4 hours before initiating oocyte maturation by the means of adding a adequate concentration of FF-MAS.
Óocytes were obtained from immature (21-24 day old) female mice (C57Bl/6J×DBA/2J F1-hybrids, M&B, Denmark) weighing 13-16 grams, which were kept under controlled lighting and temperature. […] The ovaries were dissected out and the oocytes were isolated in Hx-medium (see below) under a stereomicroscope by manual rupture of the follicles using a pair of 27 gauge needles. Spherical oocytes displaying an intact germinal vesicle (GV) were selected and placed in α-minimum essential medium (α-MEM without ribonucleosides, Gibco BRL, Cat. No. 22561) supplemented with 3 mM hypoxanthine (Sigma Cat. No. H-9377), 8 mg/ml Human Serum Albumin (HSA, State Serum Institute, Denmark), 0.23 mM pyruvate (Sigma, Cat. No. S-8636), 2 mM glutamine (Flow Cat. No. 16-801), 100 IU/ml penicillin and 100 μg/ml streptomycin (Flow, Cat. No. 16-700). This medium was designated Hx-medium. The exact same medium without Hx was designated Hx-free medium
Thus oocytes were cultured in 4-well multidishes (Nunclon, Denmark) in which each well contained 0.4 ml of Hx-medium or medium without Hx (to allow for spontaneous maturation) and 35-45 oocytes.
Different treatment groups:
1. Controls: No inhibition, No FF-MAS
2. MAS: No inhibition and 10 μM FF-MAS
3. Inhibition and then spontaneous maturation: Hx-medium for 4 hours then transfer to Hx-free medium
4. Inhibition and FF-MAS induction: Hx-medium for 4 hours and addition of FF-MAS to Hx-medium
5. Inhibition and removal of inhibition and then subsequently FF-MAS induction: Hx-medium for 4 hours, rinse, transfer to Hx-free medium and addition of FF-MAS.
In vitro fertilization following 16-20 hours maturation.
Endpoints: Fertilization rate and in vitro embryo development.

For test [3], the system named is mouse oocytes. The settings on record: 24 hours meiotic arrest with hypoxanthine, then 16-30 hour culture in inhibitor-free medium; cited from earlier work.
The mark [4] stands for this setting: Treatment No 4: Hx-medium for 4 hours and addition of FF-MAS to Hx-medium.
Where [5] appears, read: Treatment No 5: Hx-medium for 4 hours, rinse, transfer to Hx-free medium and addition of FF-MAS.
Where [6] appears, read: Treatment No 3: Hx-medium (3 mM hypoxanthine) for 4 hours then transfer to Hx-free medium, no FF-MAS.

As to `CC(C)=CCC[C@@H](C)[C@H]1CC=C2C3=C(CC[C@@]21C)[C@@]1(C)CC[C@H](O)C(C)(C)[C@@H]1CC3` [FF-MAS, 4,4-dimethyl-5α-cholesta-8,14,24-triene-3β-ol], the “Effect on nuclear and cytoplasmic maturation” value in test [1] is listed as “improves not only nuclear but cytoplasmic maturation”. Besides, the “Oocyte quality evaluated as fertilization rate and embryonic developmental capacity, compared with the other treatments” value in test [2] (4th treatment modality: inhibition (Hx-medium) and FF-MAS induction) was “significantly superior to the other treatment alternatives”. For the same compound, the “Embryo development Rate (8-cell rate at 72 hours)” value in test [2] (Treatment No 2: no inhibition and 10 μM FF-MAS) is <10%; in test [2] (setting [4]) it was 30%*; in test [2] (setting [5]), <10%. For the same compound, the “Fertilization Rate” value in test [2] (Treatment No 2: no inhibition and 10 μM FF-MAS, IVF following 16-20 hours maturation) is <50%; in test [2] (setting [4]), 75%*; in test [2] (setting [5]), <50%.

Turning to `O=c1[nH]cnc2nc[nH]c12` [hypoxanthine, Hypoxanthine], in test [2] (setting [6]), the “Embryo development Rate (8-cell rate at 72 hours)” value is <10% and the “Fertilization Rate” value is <50%. In test [3], the “Arrested oocytes that resumed maturation” value is ~100%.
